Laboratory results published in DBAASP.
Values after ≈ are worked out from the molar mass of the structure shown. Each block holds one compound with its values, some of them ahead of it.

How the values were obtained:
Test in all cases: ≥ marks a high value that may be exact or a test limit, other limits are often not marked, values filed in µg/mL are converted to µM
[1] = tested on: Klebsiella pneumoniae ATCC 43816
[2] = tested on: Staphylococcus aureus NCTC 10788
[3] = tested on: Pseudomonas aeruginosa ATCC 27853
[4] = tested on: Candida albicans NCYC 1467
[5] = tested on: Staphylococcus aureus NCTC 12493
[6] = tested on: Escherichia coli NCTC 10418
[7] = tested on: Enterococcus faecalis NCTC 12697
[8] = tested on: Escherichia coli ESBL 521/17
[9] = tested on: Klebsiella pneumoniae ESBL 344/17
[10] = tested on: Pseudomonas aeruginosa 522/17
Escherichia coli ML-35p = tested on: Escherichia coli ML-35p
[11] = tested on: Staphylococcus aureus SG511
[12] = tested on: Acinetobacter baumannii 7226/16
[13] = tested on: Staphylococcus aureus 1399/17
[14] = tested on: Staphylococcus aureus ATCC 33591
[15] = tested on: Candida parapsilosis ATCC 22019
[16] = tested on: Candida albicans ATCC 24433
[17] = tested on: Trichophyton rubrum ATCC 28189
Staphylococcus aureus = tested on: Staphylococcus aureus
Escherichia coli = tested on: Escherichia coli
[18] = tested on: Enterobacter cloacae 218R
[19] = tested on: Klebsiella pneumoniae ESBL 63575
[20] = tested on: Pseudomonas aeruginosa LES400
[21] = tested on: Staphylococcus aureus C623
[22] = tested on: Pseudomonas aeruginosa 213
[23] = tested on: Enterococcus faecalis f43559
[24] = tested on: Pseudomonas aeruginosa PAO1 H103
[25] = tested on: Escherichia coli ESBL 63103
[26] = tested on: Enterococcus faecium t62764
[27] = tested on: Enterococcus faecalis ATCC 29212
[28] = tested on: Escherichia coli ESBL 64771
[29] = tested on: Pseudomonas aeruginosa 198
[30] = tested on: Enterococcus faecium mic80
[31] = tested on: Pseudomonas aeruginosa H1030
[32] = tested on: Klebsiella pneumoniae ESBL 61962
[33] = tested on: Pseudomonas aeruginosa H1027
[34] = tested on: Enterococcus faecalis W61950
[35] = tested on: Staphylococcus aureus ATCC 25923
Pseudomonas aeruginosa 9 = tested on: Pseudomonas aeruginosa 9
[36] = tested on: Stenotrophomonas maltophilia ATCC 13637

Structure (SMILES): CC[C@H](C)[C@@H]1NC(=O)[C@H](C)NC(=O)[C@@H](NC(=O)[C@H](Cc2ccccc2)NC(=O)[C@@H](NC(=O)[C@H](CCCCN)NC(=O)[C@H](Cc2c[nH]c3ccccc23)NC(=O)[C@@H]2CCCN2C(=O)[C@H](CC(C)C)NC(=O)[C@H](Cc2ccccc2)NC(=O)[C@@H](N)CCCCN)[C@@H](C)CC)CSSC[C@@H](C(=O)O)NC(=O)[C@H](CCCCN)NC(=O)[C@H](CCCCN)NC(=O)[C@H]([C@@H](C)O)NC1=O [KFLPWKIFCAITKKC]
MIC [1]: ≥ 64 µM
MIC [2]: 8 µM (≈ 14.6 µg/mL)
MIC [3]: 128 µM (≈ 234 µg/mL)
MIC [4]: 16 µM (≈ 29.2 µg/mL)
MIC [5]: 8 µM (≈ 14.6 µg/mL)
MIC [6]: 16 µM (≈ 29.2 µg/mL)
MIC [7]: ≥ 256 µM

Structure (SMILES): CC[C@H](C)[C@@H]1NC(=O)[C@H](C)NC(=O)[C@@H](NC(=O)[C@H](Cc2ccccc2)NC(=O)[C@@H](NC(=O)[C@H](CCCCN)NC(=O)[C@@H]2CCCN2C(=O)[C@H](CC(C)C)NC(=O)[C@H](Cc2ccccc2)NC(=O)[C@@H](N)CCCCN)[C@@H](C)CC)CSSC[C@@H](C(=O)O)NC(=O)[C@H](CCCCN)NC(=O)[C@H](CCCCN)NC(=O)[C@H]([C@@H](C)O)NC1=O [KFLPKIFCAITKKC]
MIC [1]: ≥ 256 µM
MIC [2]: 8 µM (≈ 13.1 µg/mL)
MIC [3]: 512 µM (≈ 839 µg/mL)
MIC [4]: ≥ 128 µM
MIC [5]: 16 µM (≈ 26.2 µg/mL)
MIC [6]: ≥ 32 µM
MIC [7]: ≥ 512 µM

Structure (SMILES): CC[C@H](C)[C@H](NC(=O)[C@H](CC(N)=O)NC(=O)[C@H](CCCCN)NC(=O)[C@H](Cc1ccccc1)NC(=O)[C@H](CCCN=C(N)N)NC(=O)[C@H](Cc1c[nH]c2ccccc12)NC(=O)[C@H](C)N)C(=O)N[C@@H](CCCN=C(N)N)C(=O)N[C@@H](CCCCN)C(=O)O [AWRFKNIRK]
MIC [18]: ≥ 149 µM
MIC [19]: ≥ 149 µM
MIC [20]: ≥ 149 µM
MIC [21]: ≥ 149 µM
MIC [22]: ≥ 149 µM
MIC [23]: ≥ 149 µM
MIC [24]: ≥ 149 µM
MIC [25]: ≥ 149 µM
MIC [26]: ≥ 149 µM
MIC [27]: > 149 µM
MIC [28]: ≥ 149 µM
MIC [29]: ≥ 149 µM
MIC [30]: ≥ 149 µM
MIC [31]: ≥ 149 µM
MIC [32]: ≥ 149 µM
MIC [33]: ≥ 74.7 µM
MIC [34]: ≥ 149 µM
MIC [35]: 149 µM (≈ 182 µg/mL)
MIC (Pseudomonas aeruginosa 9): ≥ 149 µM
MIC [36]: ≥ 149 µM

Continued, values first:

MIC [8]: 5.66 µM (≈ 19.9 µg/mL)
MIC [9]: 8 µM (≈ 28.1 µg/mL)
MIC [10]: 16 µM (≈ 56.3 µg/mL)
MIC (Escherichia coli ML-35p): 2.83 µM (≈ 9.95 µg/mL)
MIC [11]: 0.25 µM (≈ 0.879 µg/mL)
MIC [12]: 4 µM (≈ 14.1 µg/mL)
MIC [13]: 8 µM (≈ 28.1 µg/mL)
MIC [14]: 16 µM (≈ 56.3 µg/mL)
Structure (SMILES): CC[C@H](C)[C@H](NC(=O)[C@H](CCCN=C(N)N)NC(=O)[C@@H](NC(=O)[C@H](Cc1ccccc1)NC(=O)[C@@H]1CCCN1C(=O)[C@@H]1CCCN1C(=O)[C@@H]1CCCN1C(=O)[C@H](Cc1cnc[nH]1)NC(=O)[C@@H](NC(=O)[C@H](CCCN=C(N)N)NC(=O)[C@H](CCCN=C(N)N)NC(=O)[C@H](Cc1ccccc1)NC(=O)[C@@H]1CCCN1C(=O)[C@H](CC(C)C)NC(=O)[C@H](CCCN=C(N)N)NC(=O)[C@H](Cc1ccccc1)NC(=O)[C@@H](N)CCCN=C(N)N)[C@@H](C)CC)C(C)C)C(=O)N[C@@H](Cc1cnc[nH]1)C(=O)N1CCC[C@H]1C(=O)N1CCC[C@H]1C(=O)N1CCC[C@H]1C(=O)N[C@@H](Cc1ccccc1)C(=O)N[C@@H](Cc1ccc(O)cc1)C(=O)N[C@@H](CCCN=C(N)N)C(=O)N[C@@H](CCCN=C(N)N)C(=O)N[C@@H](Cc1ccccc1)C(=O)N[C@@H](CC(C)C)C(=O)O [RFRLPFRRIHPPPFVRIHPPPFYRRFL]

MIC [15]: ≥ 267 µM
MIC [16]: ≥ 267 µM
MIC [17]: ≥ 267 µM
MIC (Staphylococcus aureus): > 267 µM
MIC (Escherichia coli): > 267 µM
Structure (SMILES): CC[C@H](C)[C@H](NC(=O)[C@H](CCCCN)NC(=O)[C@H](CCC(=O)O)NC(=O)[C@H](CO)NC(=O)[C@H](CCCN=C(N)N)NC(=O)[C@@H](N)CO)C(=O)N[C@H](C(=O)N[C@@H](Cc1cnc[nH]1)C(=O)N[C@@H](CCC(N)=O)C(=O)N[C@@H](CCCN=C(N)N)C(=O)N[C@@H](CC(C)C)C(=O)N[C@@H](Cc1ccccc1)C(N)=O)C(C)C [SRSEKIVHQRLF]

MIC [8]: 4 µM (≈ 9.85 µg/mL)
MIC [9]: 8 µM (≈ 19.7 µg/mL)
MIC [10]: ≥ 64 µM
MIC (Escherichia coli ML-35p): 4 µM (≈ 9.85 µg/mL)
MIC [11]: 4 µM (≈ 9.85 µg/mL)
MIC [12]: 16 µM (≈ 39.4 µg/mL)
MIC [13]: ≥ 32 µM
MIC [14]: ≥ 64 µM
Structure (SMILES): CC[C@H](C)[C@H](NC(=O)[C@H](CCCN=C(N)N)NC(=O)[C@@H](NC(=O)[C@@H]1CCCN1C(=O)[C@@H]1CCCN1C(=O)[C@H](CCCN=C(N)N)NC(=O)[C@H](CCCN=C(N)N)NC(=O)[C@H](Cc1ccccc1)NC(=O)[C@@H]1CCCN1C(=O)[C@H](CC(C)C)NC(=O)[C@H](CCCN=C(N)N)NC(=O)[C@H](Cc1ccccc1)NC(=O)[C@@H](N)CCCN=C(N)N)[C@@H](C)CC)C(=O)N[C@@H](Cc1cnc[nH]1)C(=O)N1CCC[C@H]1C(=O)N1CCC[C@H]1C(=O)N1CCC[C@H]1C(=O)N[C@@H](Cc1ccccc1)C(=O)N[C@@H](Cc1ccc(O)cc1)C(N)=O [RFRLPFRRPPIRIHPPPFY]

MIC [8]: ≥ 32 µM
MIC [9]: ≥ 64 µM
MIC [10]: ≥ 128 µM
MIC (Escherichia coli ML-35p): ≥ 64 µM
MIC [11]: 8 µM (≈ 15.5 µg/mL)
MIC [12]: ≥ 32 µM
MIC [13]: ≥ 32 µM
MIC [14]: ≥ 90.5 µM
Structure (SMILES): CC[C@H](C)[C@H](NC(=O)[C@@H](N)CCCN=C(N)N)C(=O)N[C@@H](Cc1cnc[nH]1)C(=O)N1CCC[C@H]1C(=O)N1CCC[C@H]1C(=O)N1CCC[C@H]1C(=O)N[C@@H](Cc1ccccc1)C(=O)N[C@@H](Cc1ccc(O)cc1)C(=O)N1CCC[C@H]1C(=O)N1CCC[C@H]1C(=O)N[C@@H](Cc1ccccc1)C(=O)N[C@@H](CCCN=C(N)N)C(=O)N[C@@H](CCCN=C(N)N)C(=O)N[C@@H](Cc1ccccc1)C(=O)N[C@@H](CC(C)C)C(N)=O [RIHPPPFYPPFRRFL]
